Reference: US20230094922A1, “METHODS OF THERAPEUTIC PROGNOSTICATION” (GENETIKAPLUS LTD., priority 2020, published 2023)

Tested on: iPSC-derived cortical neurons
Assay type: cell-based
[1] = responders vs non-responders after 10 μM Bupropion, NS

## CC(NC(C)(C)C)C(=O)c1cccc(Cl)c1 (stereo not drawn) [Bupropion, 3-Chloro-N-tert-butyl-β-keto-α-methylphenethylamin]
10 μm Bupropion, p<0.01, Table 4
  number of genes significantly downregulated in responders as compared to non-responders: 174 genes
10 μm Bupropion, p<0.01, over 60,000 genes probed
  number of genes significantly upregulated in responders as compared to non-responders after treatment: 69 genes
[1]
  logFC ABLIM2: −1.305
  logFC ABLIM3: −2.05
  logFC ACTL6B: −1.577
  logFC ADCY1: −1.308
  logFC ADCY5: −1.299
  logFC ADCYAP1R1: −1.154
  logFC ADD2: −0.7958
  logFC ADGRB3: −1.496
  logFC ADRA1B: −2.202
  logFC AGAP2: −1.343
  logFC AK5: −1.456
  logFC AKAP6: −1.215
  logFC AKR1C2: −1.478
  logFC ALPK3: −1.224
  logFC AMER3: −1.722
  logFC ANK1: −1.875
  logFC ANK2: −0.959
  logFC ANK3: −1.262
  logFC ANKH: −0.9269
  logFC ANKRD30BL: −2.897
  logFC ANKRD53: −1.517
  logFC ANKRD55: −1.879
  logFC AP3B2: −1.482
  logFC APBB1: −0.8199
  logFC APC: −0.916
  logFC APLP1: −1.076
  logFC ARHGAP20: −2.01
  logFC ARHGAP26: −0.7629
  logFC ARHGAP33: −0.9502
  logFC ARHGAP36: −2.569
  logFC ARPP21: −3.247
  logFC ASB8: −0.7127
  logFC ASIC4: −1.72
  logFC ATAT1: −0.8189
  logFC ATCAY: −1.047
  logFC ATP1A3: −1.336
  logFC ATP2B3: −1.771
  logFC ATP6V0A1: −0.6012
  logFC ATP6V0E2: −1.011
  logFC B3GALNT1: −2.052
  logFC B3GALT2: −1.685
  logFC BASP1: −0.8607
  logFC BINI: −0.8522
  logFC BMERB1: −0.8373
  logFC BRINP1: −1.623
  logFC BRSK1: −0.753
  logFC BSN: −1.599
  logFC C1orf216: −1.465
  logFC C4orf50: −1.94
  logFC CA10: −2.576
  logFC CACNA1B: −1.253
  logFC CACNB1: −1.261
  logFC CACNB3: −0.6878
  logFC CACNG2: −1.666
  logFC CACNG3: −1.337
  logFC CADM3: −1.659
  logFC CADM4: −0.6745
  logFC CALB2: −1.647
  logFC CAMK1D: −0.9513
  logFC CAMK2B: −1.689
  logFC CAMSAP3: −0.8932
  logFC CASKIN1: −0.9781
  logFC CCDC141: −2.886
  logFC CCDC184: −1.385
  logFC CDH7: −1.611
  logFC CDH12: −2.03
  logFC CDK5R1: −1.375
  logFC CELF3: −1.26
  logFC CELF4: −1.812
  logFC CEP170B: −0.6703
  logFC CEP295NL: −1.321
  logFC CHGA: −1.543
  logFC CHGB: −1.246
  logFC CHRFAM7A: −1.645
  logFC CHRM2: −2.12
  logFC CHRNA1: −2.49
  logFC CHRNA4: −1.718
  logFC CHRNB2: −1.815
  logFC CHST1: −1.711
  logFC CLASP2: −0.7536
  logFC CLCN4: −0.8168
  logFC CLDN5: −1.453
  logFC CLIP2: −0.856
  logFC CLSTN3: −0.8161
  logFC CMIP: −0.6391
  logFC CNTN1: −1.722
  logFC CORO2B: −1.199
  logFC CPLX1: −1.467
  logFC CPLX2: −1.647
  logFC CRB1: −1.691
  logFC CREG2: −1.282
  logFC CRMP1: −1.121
  logFC CSMD1: −1.31
  logFC CTNND2: −1.034
  logFC CXCL11: −2.544
  logFC CYGB: −1.896
  logFC DAAM1: −0.6945
  logFC DBNDD1: −0.8117
  logFC DCLK2: −1.477
  logFC DES: −2.44
  logFC DIRAS1: −1.66
  logFC DIRAS2: −1.952
  logFC DISP2: −1.757
  logFC DKK3: −1.052
  logFC DMTN: −1.522
  logFC DOK5: −1.085
  logFC DPF1: −1.34
  logFC DPP10: −1.13
  logFC DPYSL4: −1.082
  logFC DRD2: −1.595
  logFC DSCAML1: −1.404
  logFC DTX1: −1.204
  logFC EBF1: −1.335
  logFC ELAVL4: −1.326
  logFC ELFN2: −1.113
  logFC EPB41L1: −0.9134
  logFC EPHA8: −1.345
  logFC ERAP2: −2.32
  logFC ETFB: −1.045
  logFC EVI5L: −0.9714
  logFC EYA1: −0.8128
  logFC F7: −1.608
  logFC FAIM2: −1.923
  logFC FAM131B: −0.8962
  logFC FAM219A: −0.8506
  logFC FAM222A: −1.164
  logFC FAR2: −1.384
  logFC FAXC: −0.9556
  logFC FBXO41: −0.97
  logFC FGF14: −1.149
  logFC FMN2: −1.148
  logFC FRMD5: −0.7871
  logFC FRMPD4: −2.13
  logFC FSTL4: −1.8
  logFC FSTL5: −1.624
  logFC GABBR2: −2.251
  logFC GABRG3: −1.687
  logFC GABRR1: −2.904
  logFC GAD2: −1.46
  logFC GALNT9: −1.69
  logFC GALNTL6: −1.861
  logFC GAP43: −1.304
  logFC GCK: −1.587
  logFC GDPD5: −1.245
  logFC GFOD1: −1.12
  logFC GLRA1: −2.174
  logFC GLRA2: −1.929
  logFC GLRA3: −3.119
  logFC GMIP: −0.765
  logFC GNAO1: −1.181
  logFC GOLGA7B: −1.854
  logFC GPR26: −2.221
  logFC GPR139: −1.695
  logFC GPR158: −1.27
  logFC GPRIN1: −1.521
  logFC GPSM1: −0.733
  logFC GRIA4: −1.263
  logFC GRIK2: −1.1
  logFC GRIN1: −1.919
  logFC HECW1: −1.709
  logFC HERC1: −0.5953
  logFC HID1: −0.975
  logFC HK1: −0.5528
  logFC HRH3: −1.315
  logFC HTR5A: −2.98
  logFC IFI27: −1.463
  logFC IFIT5: −0.8218
  logFC IGLON5: −0.9869
  logFC IGSF8: −0.6614
  logFC INA: −1.425
  logFC INSM1: −1.183
  logFC ISL1: −2.075
  logFC ISLR2: −2.565
  logFC JAKMIP1: −1.737
  logFC KBTBD11: −1.03
  logFC KCNA2: −1.235
  logFC KCNC2: −2.213
  logFC KCNH6: −1.966
  logFC KCNIP1: −1.502
  logFC KCNJ3: −1.979
  logFC KCNJ6: −1.811
  logFC KCNJ9: −1.383
  logFC KCNK3: −2.03
  logFC KCNQ2: −1.053
  logFC KCNS2: −2.976
  logFC KIAA0513: −1.005
  logFC KIAA1755: −1.809
  logFC KIF3C: −1.295
  logFC KIF5A: −1.285
  logFC KIFAP3: −0.9071
  logFC KIRREL3: −1.338
  logFC KLHL1: −2.102
  logFC LG14: −0.9845
  logFC LGI2: −1.253
  logFC LGI3: −2.434
  logFC LHFPL4: −1.28
  logFC LMTK3: −0.9148
  logFC LRATD1: −1.429
  logFC LRFN2: −1.645
  logFC LRRC4C: −1.523
  logFC LRRC7: −1.643
  logFC LRRC55: −1.342
  logFC LRRTM2: −1.587
  logFC LSM11: −0.7282
  logFC LZTS1: −1.332
  logFC MAP1A: −1.103
  logFC MAPK8IP2: −1.461
  logFC MAPRE2: −0.7432
  logFC MAST1: −1.276
  logFC MFNG: −1.262
  logFC MFSD6: −1.112
  logFC MKRN3: −1.448
  logFC MPO: −2.163
  logFC MPP3: −1.029
  logFC MRAS: −0.5698
  logFC MTMR7: −1.1
  logFC MTSS1: −0.9406
  logFC MX1: −1.291
  logFC MXRA7: −0.6421
  logFC MYL1: −4.411
  logFC NACAD: −0.8329
  logFC NAP1L5: −0.871
  logFC NCAM1: −1.37
  logFC NCAM2: −1.147
  logFC NDRG4: −1.32
  logFC NECAP1: −0.6044
  logFC NEGR1: −1.829
  logFC NFASC: −1.15
  logFC NHLH1: −1.305
  logFC NHLH2: −2.363
  logFC NKAIN4: −0.8753
  logFC NMNAT2: −1.044
  logFC NOVAI: −0.9754
  logFC NPAS3: −1.402
  logFC NPM2: −1.674
  logFC NR1I3: −1.278
  logFC NRSN1: −1.718
  logFC NRXN1: −1.372
  logFC NSG1: −1.704
  logFC NSG2: −1.942
  logFC NTM: −1.35
  logFC NTNG1: −1.193
  logFC NWD2: −2.251
  logFC NXPH4: −1.744
  logFC NYAP1: −0.9844
  logFC NYAP2: −2.578
  logFC OLFM2: −1.002
  logFC OTUD7A: −1.036
